Literature values in patent US11737994B2, “Topical compositions for pain relief, manufacture and use” (priority 2014, dated 2023).

Conditions: in words

For CCCCCCCCC(=O)NCc1ccc(O)c(OC)c1 [Nonivamide, vanillylamide of n-nonanoic acid], the Heat stability is listed as “more heat-stable than capsaicin”.
